Results taken from paper doi:10.1101/2023.03.24.534094v2 (biorxiv, 2023).
Like-named read-outs stand apart in the source and are kept apart here. Values belong to the compound of their own block, whether it stands above or below them.

What was measured:
Assay in all cases: biochemical
[1] = target: BIKE (Homo sapiens, UniProt Q9NSY1)
[2] = target: T1, BMX (Homo sapiens, UniProt P51813)
T1 sequence (P51813 1-675): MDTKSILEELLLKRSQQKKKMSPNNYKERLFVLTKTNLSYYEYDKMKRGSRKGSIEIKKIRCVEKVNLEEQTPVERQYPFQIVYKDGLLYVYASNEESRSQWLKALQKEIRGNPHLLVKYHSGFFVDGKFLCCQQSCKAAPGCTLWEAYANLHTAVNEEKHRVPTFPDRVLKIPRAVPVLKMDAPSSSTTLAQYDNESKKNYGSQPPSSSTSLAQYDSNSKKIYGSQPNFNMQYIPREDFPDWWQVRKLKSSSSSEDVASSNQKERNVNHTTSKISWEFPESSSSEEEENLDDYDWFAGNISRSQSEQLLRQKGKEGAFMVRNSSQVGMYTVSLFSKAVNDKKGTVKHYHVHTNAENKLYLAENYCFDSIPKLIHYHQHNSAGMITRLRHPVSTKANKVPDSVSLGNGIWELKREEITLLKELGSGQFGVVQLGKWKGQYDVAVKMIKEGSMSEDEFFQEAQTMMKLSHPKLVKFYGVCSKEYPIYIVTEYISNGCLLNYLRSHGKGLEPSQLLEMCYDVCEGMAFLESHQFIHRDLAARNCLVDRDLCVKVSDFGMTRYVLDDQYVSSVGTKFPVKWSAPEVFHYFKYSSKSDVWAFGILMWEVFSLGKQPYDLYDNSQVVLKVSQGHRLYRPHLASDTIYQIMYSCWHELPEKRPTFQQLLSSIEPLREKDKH

[3] = target: CaMK2d (Homo sapiens, UniProt Q13557)
CaMK2d, sequence (Q13557 whole entry): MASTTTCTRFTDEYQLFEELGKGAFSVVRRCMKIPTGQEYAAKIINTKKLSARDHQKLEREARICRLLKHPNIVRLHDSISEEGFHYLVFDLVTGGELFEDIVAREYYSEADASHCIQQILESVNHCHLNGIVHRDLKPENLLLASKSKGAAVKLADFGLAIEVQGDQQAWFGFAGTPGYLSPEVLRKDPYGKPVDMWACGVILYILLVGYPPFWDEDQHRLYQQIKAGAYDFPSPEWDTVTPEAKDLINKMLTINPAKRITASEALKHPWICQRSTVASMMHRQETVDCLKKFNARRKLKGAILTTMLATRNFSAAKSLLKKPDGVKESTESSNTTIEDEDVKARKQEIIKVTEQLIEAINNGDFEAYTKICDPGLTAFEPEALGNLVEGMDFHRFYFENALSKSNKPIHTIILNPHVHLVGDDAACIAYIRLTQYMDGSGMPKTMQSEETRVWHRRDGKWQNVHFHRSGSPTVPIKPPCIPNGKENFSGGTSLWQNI

[4] = target: GPRK5 (Homo sapiens, UniProt P34947)
GPRK5, sequence (P34947 whole entry): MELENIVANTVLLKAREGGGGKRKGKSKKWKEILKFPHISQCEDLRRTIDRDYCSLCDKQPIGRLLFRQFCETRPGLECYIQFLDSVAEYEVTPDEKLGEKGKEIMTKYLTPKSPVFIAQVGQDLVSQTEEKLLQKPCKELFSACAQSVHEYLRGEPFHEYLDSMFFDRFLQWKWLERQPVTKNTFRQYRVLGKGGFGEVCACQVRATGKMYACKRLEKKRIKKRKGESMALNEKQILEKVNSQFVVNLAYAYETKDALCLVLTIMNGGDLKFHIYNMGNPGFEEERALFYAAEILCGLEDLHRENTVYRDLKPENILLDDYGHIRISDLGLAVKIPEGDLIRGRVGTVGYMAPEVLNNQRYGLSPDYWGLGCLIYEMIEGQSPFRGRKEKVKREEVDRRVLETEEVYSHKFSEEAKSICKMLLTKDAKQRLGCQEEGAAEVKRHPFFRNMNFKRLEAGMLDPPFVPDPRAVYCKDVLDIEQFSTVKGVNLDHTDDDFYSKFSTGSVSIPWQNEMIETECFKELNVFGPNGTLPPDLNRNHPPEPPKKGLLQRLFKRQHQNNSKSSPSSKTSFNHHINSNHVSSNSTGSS

[5] = target: T2, Haspin (Homo sapiens, UniProt Q8TF76)
T2 sequence (Q8TF76 1-798): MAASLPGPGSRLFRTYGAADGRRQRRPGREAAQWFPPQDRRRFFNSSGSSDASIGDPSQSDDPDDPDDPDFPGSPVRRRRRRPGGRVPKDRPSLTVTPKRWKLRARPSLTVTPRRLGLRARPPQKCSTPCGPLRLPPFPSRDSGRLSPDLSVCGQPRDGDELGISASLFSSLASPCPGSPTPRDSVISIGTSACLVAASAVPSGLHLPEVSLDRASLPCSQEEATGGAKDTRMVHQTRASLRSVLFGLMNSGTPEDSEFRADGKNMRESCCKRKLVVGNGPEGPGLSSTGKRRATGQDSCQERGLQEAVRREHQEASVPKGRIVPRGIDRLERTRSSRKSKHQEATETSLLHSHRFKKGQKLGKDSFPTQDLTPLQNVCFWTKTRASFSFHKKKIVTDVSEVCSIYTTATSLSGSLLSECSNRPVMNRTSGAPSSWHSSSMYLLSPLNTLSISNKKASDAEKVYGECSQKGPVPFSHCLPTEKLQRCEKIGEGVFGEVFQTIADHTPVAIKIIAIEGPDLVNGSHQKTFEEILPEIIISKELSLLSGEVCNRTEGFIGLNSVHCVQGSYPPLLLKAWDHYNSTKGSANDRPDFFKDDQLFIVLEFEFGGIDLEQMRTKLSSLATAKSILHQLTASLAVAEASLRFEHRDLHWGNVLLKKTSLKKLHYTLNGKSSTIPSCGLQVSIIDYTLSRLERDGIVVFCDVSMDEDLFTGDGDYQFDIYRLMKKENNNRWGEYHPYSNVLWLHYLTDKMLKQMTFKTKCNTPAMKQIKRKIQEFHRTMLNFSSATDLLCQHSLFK

[6] = target: JNK1 (Homo sapiens, UniProt P45983)
JNK1, sequence (P45983 whole entry): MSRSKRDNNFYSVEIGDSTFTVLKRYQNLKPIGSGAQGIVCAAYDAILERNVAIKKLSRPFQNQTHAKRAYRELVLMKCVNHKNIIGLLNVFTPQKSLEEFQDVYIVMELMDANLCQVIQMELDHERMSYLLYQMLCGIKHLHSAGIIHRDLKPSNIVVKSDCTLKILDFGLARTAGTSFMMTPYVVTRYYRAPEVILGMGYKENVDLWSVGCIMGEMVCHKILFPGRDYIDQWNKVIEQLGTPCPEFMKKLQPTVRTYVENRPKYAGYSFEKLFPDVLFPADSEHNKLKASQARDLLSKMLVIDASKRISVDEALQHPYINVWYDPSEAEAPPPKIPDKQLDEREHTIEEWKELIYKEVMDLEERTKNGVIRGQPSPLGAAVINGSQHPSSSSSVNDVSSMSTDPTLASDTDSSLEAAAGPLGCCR

[7] = target: T3, MAP2K6 (Homo sapiens, UniProt P52564)
T3 sequence (P52564 1-334): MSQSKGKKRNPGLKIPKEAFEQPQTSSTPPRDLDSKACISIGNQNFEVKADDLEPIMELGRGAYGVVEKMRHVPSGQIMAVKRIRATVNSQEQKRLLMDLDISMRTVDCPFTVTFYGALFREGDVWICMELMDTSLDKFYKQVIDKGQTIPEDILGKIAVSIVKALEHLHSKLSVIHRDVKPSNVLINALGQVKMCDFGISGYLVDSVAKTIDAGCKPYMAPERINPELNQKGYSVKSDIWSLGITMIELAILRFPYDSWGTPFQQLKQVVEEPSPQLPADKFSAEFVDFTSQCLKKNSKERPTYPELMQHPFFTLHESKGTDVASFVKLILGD

[8] = target: T4, PHKG2 (Homo sapiens, UniProt P15735)
T4 sequence (P15735 1-406): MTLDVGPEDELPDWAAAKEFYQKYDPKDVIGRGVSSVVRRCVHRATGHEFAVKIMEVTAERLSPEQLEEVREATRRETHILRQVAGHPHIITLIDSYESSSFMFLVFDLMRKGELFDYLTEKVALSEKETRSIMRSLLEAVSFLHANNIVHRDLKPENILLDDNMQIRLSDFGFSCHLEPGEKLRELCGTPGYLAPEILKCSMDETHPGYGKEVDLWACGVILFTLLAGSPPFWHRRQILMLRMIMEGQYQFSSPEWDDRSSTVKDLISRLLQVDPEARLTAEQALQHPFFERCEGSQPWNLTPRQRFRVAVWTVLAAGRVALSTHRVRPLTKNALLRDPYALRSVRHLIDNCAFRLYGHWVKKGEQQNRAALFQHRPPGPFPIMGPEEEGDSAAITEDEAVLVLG

BIKE, sequence (Q9NSY1 whole entry): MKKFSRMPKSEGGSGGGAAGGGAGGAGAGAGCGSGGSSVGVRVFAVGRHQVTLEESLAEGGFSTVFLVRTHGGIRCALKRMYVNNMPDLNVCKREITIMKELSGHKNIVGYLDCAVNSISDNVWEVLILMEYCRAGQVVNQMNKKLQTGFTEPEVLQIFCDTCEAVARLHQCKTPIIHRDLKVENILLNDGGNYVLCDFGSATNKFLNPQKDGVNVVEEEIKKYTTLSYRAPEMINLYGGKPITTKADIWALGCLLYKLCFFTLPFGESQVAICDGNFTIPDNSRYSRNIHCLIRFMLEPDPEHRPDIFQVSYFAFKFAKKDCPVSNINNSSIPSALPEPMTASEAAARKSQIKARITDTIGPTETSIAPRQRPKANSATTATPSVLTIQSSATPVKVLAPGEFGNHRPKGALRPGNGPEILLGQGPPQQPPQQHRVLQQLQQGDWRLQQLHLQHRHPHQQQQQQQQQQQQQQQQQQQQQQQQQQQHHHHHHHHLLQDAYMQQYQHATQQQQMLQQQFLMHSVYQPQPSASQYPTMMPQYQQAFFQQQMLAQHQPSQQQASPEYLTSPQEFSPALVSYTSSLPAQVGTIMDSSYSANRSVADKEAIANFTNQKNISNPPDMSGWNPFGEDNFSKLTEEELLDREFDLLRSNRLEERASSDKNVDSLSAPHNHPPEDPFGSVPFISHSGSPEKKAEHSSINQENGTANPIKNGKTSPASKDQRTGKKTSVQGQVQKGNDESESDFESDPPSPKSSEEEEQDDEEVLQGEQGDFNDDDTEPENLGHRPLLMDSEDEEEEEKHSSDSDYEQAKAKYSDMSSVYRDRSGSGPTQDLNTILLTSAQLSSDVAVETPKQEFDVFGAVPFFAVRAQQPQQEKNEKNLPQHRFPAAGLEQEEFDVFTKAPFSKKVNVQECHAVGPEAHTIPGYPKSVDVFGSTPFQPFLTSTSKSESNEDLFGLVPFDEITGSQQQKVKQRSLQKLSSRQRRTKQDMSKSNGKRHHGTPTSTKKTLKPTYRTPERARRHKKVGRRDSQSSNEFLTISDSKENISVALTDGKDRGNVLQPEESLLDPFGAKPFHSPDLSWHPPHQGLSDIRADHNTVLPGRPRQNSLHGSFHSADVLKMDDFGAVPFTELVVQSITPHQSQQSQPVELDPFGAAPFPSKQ

- ΔTm at 10 µM ([1]; read-out: dTm 7): 0.7 °C
- ΔTm at 10 µM ([2]; read-out: dTm 7): 3.2 °C
- ΔTm at 10 µM ([3]; read-out: dTm 7): 0.4 °C
- ΔTm at 10 µM ([4]; read-out: dTm 7): 0.2 °C
- ΔTm at 10 µM ([5]; read-out: dTm 7): 0.7 °C
- ΔTm at 10 µM ([6]; read-out: dTm 7): 0.9 °C
- ΔTm at 10 µM ([7]; read-out: dTm 7): 0.9 °C
- ΔTm at 10 µM ([8]; read-out: dTm 7): 0.3 °C
Structure (SMILES): CNc1ncc2cc(-c3cc(Br)ccc3Cl)c(=O)n(C[C@H]3OC[C@H](N)CO3)c2n1 [compound 7, 8-(((2r,5r)-5-Amino-1,3-dioxan-2-yl)methyl)-6-(5-bromo-2-chlorophenyl)-2-(methylamino)pyrido[2,3-d]pyrimidin-7(8H)-one]

- ΔTm at 10 µM ([1]; read-out: dTm 6): 0.6 °C
- ΔTm at 10 µM ([2]; read-out: dTm 6): 3.8 °C
- ΔTm at 10 µM ([3]; read-out: dTm 6): 0 °C
- ΔTm at 10 µM ([4]; read-out: dTm 6): 0 °C
- ΔTm at 10 µM ([5]; read-out: dTm 6): 0.7 °C
- ΔTm at 10 µM ([6]; read-out: dTm 6): 0.2 °C
- ΔTm at 10 µM ([7]; read-out: dTm 6): 1.4 °C
- ΔTm at 10 µM ([8]; read-out: dTm 6): 0.8 °C
Structure (SMILES): CNc1ncc2cc(-c3cc(Br)ccc3Cl)c(=O)n(CCCCN)c2n1 [compound 6, 8-(4-Aminobutyl)-6-(5-bromo-2-chlorophenyl)-2-(methylamino)pyrido[2,3-d]pyrimidin-7(8H)-one]

- ΔTm at 10 µM ([1]; read-out: dTm MR22 (5)): 2.1 °C
- ΔTm at 10 µM ([2]; read-out: dTm MR22 (5)): 1.9 °C
- ΔTm at 10 µM ([3]; read-out: dTm MR22 (5)): -0.6 °C
- ΔTm at 10 µM ([4]; read-out: dTm MR22 (5)): -0.6 °C
- ΔTm at 10 µM ([5]; read-out: dTm MR22 (5)): -0.3 °C
- ΔTm at 10 µM ([6]; read-out: dTm MR22 (5)): 5.5 °C
- ΔTm at 10 µM ([7]; read-out: dTm MR22 (5)): 1 °C
- ΔTm at 10 µM ([8]; read-out: dTm MR22 (5)): 1.4 °C
Structure (SMILES): CNc1ncc2cc(-c3cc(F)ccc3F)c(=O)n(CCCCN)c2n1 [compound 5, 8-(4-Aminobutyl)-6-(2,5-difluorophenyl)-2-(methylamino)pyrido[2,3-d]pyrimidin-7(8H)-one]

Continued, compound first:

Structure (SMILES): CNc1ncc2cc(-c3ccc(-c4cccc(C)n4)cc3Cl)c(=O)n(CC3OCC(N)CO3)c2n1 (stereo not drawn) [compound 2, G-5555]
- dTm G-5555 (2) ([1]; 10 µM, binder): 2.5 °C
- dTm G-5555 (2) ([2]; 10 µM, binder): 1.3 °C
- dTm G-5555 (2) ([3]; 10 µM, binder): -0.1 °C
- dTm G-5555 (2) ([4]; 10 µM, binder): -0.2 °C
- dTm G-5555 (2) ([5]; 10 µM, binder): 0.2 °C
- dTm G-5555 (2) ([7]; 10 µM, binder): 4.4 °C
- dTm G-5555 (2) ([8]; 10 µM, binder): 0.6 °C

Structure (SMILES): CNc1ncc2cc(-c3ccccc3Cl)c(=O)n(CCCCN)c2n1 [compound 4, 8-(4-Aminobutyl)-6-(2-chlorophenyl)-2-(methylamino)pyrido[2,3-d]pyrimidin-7(8H)-one]
- ΔTm at 10 µM ([1]; read-out: dTm MR21 (4)): 3.1 °C
- ΔTm at 10 µM ([2]; read-out: dTm MR21 (4)): 3.3 °C
- ΔTm at 10 µM ([3]; read-out: dTm MR21 (4)): 0 °C
- ΔTm at 10 µM ([4]; read-out: dTm MR21 (4)): -1.2 °C
- ΔTm at 10 µM ([5]; read-out: dTm MR21 (4)): 0.7 °C
- ΔTm at 10 µM ([6]; read-out: dTm MR21 (4)): 0.9 °C
- ΔTm at 10 µM ([7]; read-out: dTm MR21 (4)): 3.1 °C
- ΔTm at 10 µM ([8]; read-out: dTm MR21 (4)): 0.3 °C
